Test results reported in patent US20250042914A1, “PIKFYVE KINASE INHIBITOR” (HANMI PHARM. CO., LTD., priority 2021, published 2025).
Where a name gives a salt, the structure may show the parent alone.

Target: human-derived PIKfyve kinase (Homo sapiens (Human), UniProt Q9Y2I7)
Experiment: PIKfyve enzyme inhibition assay (ADP-Glo)
Format: biochemical
Conditions: PIKfyve enzyme inhibitory assay; PI(3)P 10 μm, ATP 2 μm, 60 minutes
Description: For each of the compounds prepared in Examples 1 to 33, the PIKfyve enzyme inhibitory activity was measured by using a QS S Assis PIKFYVE (PIP5K3)_ADP-Glo™ Kit (Cat. #11-118) made by Carna Bioscience. 5 μL of each of human-derived PIKfyve kinase, PI(3)P, and ATP solution was added to a 384-well plate (such that final concentrations of each solution are 375 ng/ml, 10 μm, and 2 μm, respectively). The compound to be evaluated underwent serial dilution according to the set concentrations, and 5 μL of the diluted solution was added to each well and caused a reaction for 60 minutes. MgCl2 was mixed in ADP-Glo™ solution (Promega, Cat. #V9102) to a final concentration of 100 mM, and 20 μL of the mixed solution was added to each well and caused a reaction at room temperature for 40 minutes. 40 μL of kinase detection solution was added to each well and caused a reaction at room temperature for 40 minutes. Then, the luminescence signals were detected by using a Synergy™ NEO microplate analyzer. Well to which no enzyme was added were used as a negative control, whereas wells to which no drug was added were used as a positive control, so as to calculate the enzyme inhibitory ability (%) of drugs. The 50% inhibitor concentration (IC50) values were calculated by using a GraphPad Prism software.
In Table 1, when the case where the IC50 value was 50 nM or less was indicated as A, the case where the IC50 value was greater than 50 nM but equal to or less than 100 nM was indicated as B, and the case where the IC50 value was greater than 100 nM was indicated as C.

human-derived PIKfyve kinase, sequence (Q9Y2I7 whole entry): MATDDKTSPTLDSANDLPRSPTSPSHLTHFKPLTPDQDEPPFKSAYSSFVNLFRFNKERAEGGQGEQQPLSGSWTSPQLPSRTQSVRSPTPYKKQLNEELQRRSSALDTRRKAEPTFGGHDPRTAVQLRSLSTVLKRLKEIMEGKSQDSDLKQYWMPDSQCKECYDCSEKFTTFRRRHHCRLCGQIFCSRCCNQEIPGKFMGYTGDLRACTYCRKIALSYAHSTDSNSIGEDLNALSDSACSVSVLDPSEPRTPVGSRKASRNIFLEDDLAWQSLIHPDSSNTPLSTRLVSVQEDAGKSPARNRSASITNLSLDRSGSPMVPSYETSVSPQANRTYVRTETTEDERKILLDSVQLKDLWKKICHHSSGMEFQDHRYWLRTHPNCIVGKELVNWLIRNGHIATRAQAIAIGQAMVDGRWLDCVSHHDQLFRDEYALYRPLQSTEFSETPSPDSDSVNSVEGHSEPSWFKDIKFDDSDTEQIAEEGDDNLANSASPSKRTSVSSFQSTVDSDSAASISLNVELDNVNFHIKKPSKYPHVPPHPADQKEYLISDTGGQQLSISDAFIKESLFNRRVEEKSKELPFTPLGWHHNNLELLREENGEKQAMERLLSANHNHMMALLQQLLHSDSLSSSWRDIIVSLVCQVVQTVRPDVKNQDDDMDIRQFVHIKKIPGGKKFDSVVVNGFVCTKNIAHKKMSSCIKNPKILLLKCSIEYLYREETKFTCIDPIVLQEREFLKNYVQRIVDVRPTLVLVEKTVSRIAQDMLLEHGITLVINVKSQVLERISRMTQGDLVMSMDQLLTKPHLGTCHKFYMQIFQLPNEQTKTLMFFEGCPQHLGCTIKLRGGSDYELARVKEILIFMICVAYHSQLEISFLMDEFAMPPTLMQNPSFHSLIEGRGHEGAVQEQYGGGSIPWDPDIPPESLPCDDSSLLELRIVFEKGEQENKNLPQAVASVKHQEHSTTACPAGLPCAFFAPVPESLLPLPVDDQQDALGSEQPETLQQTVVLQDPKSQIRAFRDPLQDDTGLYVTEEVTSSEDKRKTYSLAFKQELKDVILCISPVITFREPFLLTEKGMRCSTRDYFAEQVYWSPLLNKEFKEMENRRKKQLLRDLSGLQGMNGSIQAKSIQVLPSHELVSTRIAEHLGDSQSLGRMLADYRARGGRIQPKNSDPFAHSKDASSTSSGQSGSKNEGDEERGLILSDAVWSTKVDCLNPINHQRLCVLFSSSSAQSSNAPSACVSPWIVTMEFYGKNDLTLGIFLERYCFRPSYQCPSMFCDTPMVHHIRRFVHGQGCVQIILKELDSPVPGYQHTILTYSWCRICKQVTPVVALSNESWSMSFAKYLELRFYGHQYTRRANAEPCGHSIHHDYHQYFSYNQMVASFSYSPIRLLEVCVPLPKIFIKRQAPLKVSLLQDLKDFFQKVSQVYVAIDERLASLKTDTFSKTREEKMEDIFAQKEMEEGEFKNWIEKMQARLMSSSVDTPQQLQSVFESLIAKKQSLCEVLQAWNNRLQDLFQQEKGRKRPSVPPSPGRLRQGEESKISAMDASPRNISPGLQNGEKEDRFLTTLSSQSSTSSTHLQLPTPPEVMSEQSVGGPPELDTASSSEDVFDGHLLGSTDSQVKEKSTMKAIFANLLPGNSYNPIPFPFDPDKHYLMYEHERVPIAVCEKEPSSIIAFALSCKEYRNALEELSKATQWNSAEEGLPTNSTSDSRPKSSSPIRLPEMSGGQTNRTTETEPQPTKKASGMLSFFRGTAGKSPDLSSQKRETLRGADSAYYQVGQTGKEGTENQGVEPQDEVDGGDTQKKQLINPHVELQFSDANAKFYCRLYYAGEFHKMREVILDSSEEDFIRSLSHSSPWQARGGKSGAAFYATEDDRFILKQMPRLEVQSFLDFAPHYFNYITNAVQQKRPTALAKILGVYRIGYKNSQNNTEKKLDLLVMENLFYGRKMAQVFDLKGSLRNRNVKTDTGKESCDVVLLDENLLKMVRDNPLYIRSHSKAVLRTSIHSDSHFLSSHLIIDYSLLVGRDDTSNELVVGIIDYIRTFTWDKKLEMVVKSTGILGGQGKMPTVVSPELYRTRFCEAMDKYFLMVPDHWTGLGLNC

| SMILES | IC50 |
| --- | --- |
| O=C(Nc1cccc(-c2nc(N3CCOCC3)c3sc(-c4ccncc4)cc3n2)c1)c1ccncc1 [Example 1, N-(3-(4-morpholino-6-(pyridin-4-yl)thieno[3,2-d]pyrimidin-2-yl)phenyl)isonicotinamide] | ≤ 0.05 µM |
| O=C(Nc1cccc(-c2nc(N3CCOCC3)c3sc(-c4cccnc4)cc3n2)c1)c1ccncc1 [Example 2, N-(3-(4-morpholino-6-(pyridin-3-yl)thieno[3,2-d]pyrimidin-2-yl)phenyl)isonicotinamide] | ≤ 0.05 µM |
| O=C(Nc1cccc(-c2nc(N3CCOCC3)c3sc(-c4cnco4)cc3n2)c1)c1ccncc1 [Example 3, N-(3-(4-morpholino-6-(oxazol-5-yl)thieno[3,2-d]pyrimidin-2-yl)phenyl)isonicotinamide] | ≤ 0.05 µM |
| O=C(Nc1cccc(-c2nc(N3CCOCC3)c3sc(-c4ccncc4)cc3n2)c1)c1cccnc1 [Example 4, N-(3-(4-morpholino-6-(pyridin-4-yl)thieno[3,2-d]pyrimidin-2-yl)phenyl)nicotinamide] | ≤ 0.05 µM |
| O=C(Nc1cccc(-c2nc(N3CCOCC3)c3sc(-c4cccnc4)cc3n2)c1)c1cccnc1 [Example 5, N-(3-(4-morpholino-6-(pyridin-3-yl)thieno[3,2-d]pyrimidin-2-yl)phenyl)nicotinamide] | ≤ 0.05 µM |
| Nc1ccc(-c2cc3nc(-c4cccc(NC(=O)c5cccnc5)c4)nc(N4CCOCC4)c3s2)cc1 [Example 6, N-(3-(6-(4-aminophenyl)-4-morpholinothieno[3,2-d]pyrimidin-2-yl)phenyl)nicotinamide hydrochloride] | ≤ 0.05 µM |
| O=C(Nc1cccc(-c2nc(N3CCOCC3)c3sc(-c4cnco4)cc3n2)c1)c1cccnc1 [Example 7, N-(3-(4-morpholino-6-(oxazol-5-yl)thieno[3,2-d]pyrimidin-2-yl)phenyl)nicotinamide] | ≤ 0.05 µM |
| O=C(Nc1cccc(-c2nc(N3CCOCC3)c3sc(-c4ccnc5[nH]ccc45)cc3n2)c1)c1cccnc1 [Example 9, N-(3-(4-morpholino-6-(1H-pyrrolo[2,3-b]pyridin-4-yl)thieno[3,2-d]pyrimidin-2-yl)phenyl)nicotinamide] | ≤ 0.05 µM |
| O=C(Nc1cccc(-c2nc(N3CCOCC3)c3sc(-c4ccnc5[nH]ncc45)cc3n2)c1)c1cccnc1 [Example 10, N-(3-(4-morpholino-6-(1H-pyrazolo[3,4-b]pyridin-4-yl)thieno[3,2-d]pyrimidin-2-yl)phenyl)nicotinamide] | 0.05 to 0.1 µM |
| O=C(Nc1cccc(-c2nc(N3CCOCC3)c3sc(-c4cncc5[nH]ccc45)cc3n2)c1)c1cccnc1 [Example 11, N-(3-(4-morpholino-6-(1H-pyrrolo[2,3-c]pyridin-4-yl)thieno[3,2-d]pyrimidin-2-yl)phenyl)nicotinamide] | > 0.1 µM |
| O=C(Nc1cccc(-c2nc(N3CCOCC3)c3sc(-c4cccnc4)cc3n2)c1)c1cocn1 [Example 12, N-(3-(4-morpholino-6-(pyridin-3-yl)thieno[3,2-d]pyrimidin-2-yl)phenyl) oxazole-4-carboxamide] | ≤ 0.05 µM |
| O=C(Nc1cccc(-c2nc(N3CCOCC3)c3sc(-c4cccnc4)cc3n2)c1)c1cnco1 [Example 13, N-(3-(4-morpholino-6-(pyridin-3-yl)thieno[3,2-d]pyrimidin-2-yl)phenyl) oxazole-5-carboxamide] | ≤ 0.05 µM |
| O=C(Nc1cccc(-c2nc(N3CCOCC3)c3sc(-c4cccnc4)cc3n2)c1)c1ncco1 [Example 14, N-(3-(4-morpholino-6-(pyridin-3-yl)thieno[3,2-d]pyrimidin-2-yl)phenyl) oxazole-2-carboxamide] | ≤ 0.05 µM |
| Cc1ncc(C(=O)Nc2cccc(-c3nc(N4CCOCC4)c4sc(-c5cccnc5)cc4n3)c2)o1 [Example 15, 2-methyl-N-(3-(4-morpholino-6-(pyridin-3-yl)thieno[3,2-d]pyrimidin-2-yl)phenyl) oxazole-5-carboxamide] | 0.05 to 0.1 µM |
| Cc1ncoc1C(=O)Nc1cccc(-c2nc(N3CCOCC3)c3sc(-c4cccnc4)cc3n2)c1 [Example 16, 4-methyl-N-(3-(4-morpholino-6-(pyridin-3-yl)thieno[3,2-d]pyrimidin-2-yl)phenyl) oxazole-5-carboxamide] | ≤ 0.05 µM |
| Cc1nc(C)c(C(=O)Nc2cccc(-c3nc(N4CCOCC4)c4sc(-c5cccnc5)cc4n3)c2)o1 [Example 17, 2,4-dimethyl-N-(3-(4-morpholino-6-(pyridin-3-yl)thieno[3,2-d]pyrimidin-2-yl)phenyl) oxazole-5-carboxamide] | ≤ 0.05 µM |

| SMILES | IC50 |
| --- | --- |
| O=C(Nc1cccc(-c2nc(N3CCOCC3)c3sc(-c4cccnc4)cc3n2)c1)c1cscn1 [Example 18, N-(3-(4-morpholino-6-(pyridin-3-yl)thieno[3,2-d]pyrimidin-2-yl)phenyl) thiazole-4-carboxamide] | > 0.1 µM |
| O=C(Nc1cccc(-c2nc(N3CCOCC3)c3sc(-c4cccnc4)cc3n2)c1)c1cncs1 [Example 19, N-(3-(4-morpholino-6-(pyridin-3-yl)thieno[3,2-d]pyrimidin-2-yl)phenyl) thiazole-5-carboxamide] | ≤ 0.05 µM |
| O=C(Nc1cccc(-c2nc(N3CCOCC3)c3sc(-c4cccnc4)cc3n2)c1)c1nccs1 [Example 20, N-(3-(4-morpholino-6-(pyridin-3-yl)thieno[3,2-d]pyrimidin-2-yl)phenyl) thiazole-2-carboxamide] | > 0.1 µM |
| Cc1ncc(C(=O)Nc2cccc(-c3nc(N4CCOCC4)c4sc(-c5cccnc5)cc4n3)c2)s1 [Example 21, 2-methyl-N-(3-(4-morpholino-6-(pyridin-3-yl)thieno[3,2-d]pyrimidin-2-yl)phenyl) thiazole-5-carboxamide] | ≤ 0.05 µM |
| Cc1ncsc1C(=O)Nc1cccc(-c2nc(N3CCOCC3)c3sc(-c4cccnc4)cc3n2)c1 [Example 22, 4-methyl-N-(3-(4-morpholino-6-(pyridin-3-yl)thieno[3,2-d]pyrimidin-2-yl)phenyl) thiazole-5-carboxamide] | ≤ 0.05 µM |
| Cc1nc(C)c(C(=O)Nc2cccc(-c3nc(N4CCOCC4)c4sc(-c5cccnc5)cc4n3)c2)s1 [Example 23, 2,4-dimethyl-N-(3-(4-morpholino-6-(pyridin-3-yl)thieno[3,2-d]pyrimidin-2-yl)phenyl) thiazole-5-carboxamide] | 0.05 to 0.1 µM |
| O=C(Nc1cccc(-c2nc(N3CCOCC3)c3sc(-c4cccnc4)cc3n2)c1)C1CCCNC1 (centres unmarked) [Example 24, N-(3-(4-morpholino-6-(pyridin-3-yl)thieno[3,2-d]pyrimidin-2-yl)phenyl)piperidine-3-carboxamide] | ≤ 0.05 µM |
| O=C(Nc1cccc(-c2nc(N3CCOCC3)c3sc(-c4cccnc4)cc3n2)c1)C1CCNCC1 [Example 25, N-(3-(4-morpholino-6-(pyridin-3-yl)thieno[3,2-d]pyrimidin-2-yl)phenyl)piperidine-4-carboxamide] | ≤ 0.05 µM |
| O=C(Nc1cccc(-c2nc(N3CCOCC3)c3sc(-c4cccnc4)cc3n2)c1)C1CCN(CCO)CC1 [Example 26, 1-(2-hydroxyethyl)-N-(3-(4-morpholino-6-(pyridin-3-yl)thieno[3,2-d]pyrimidin-2-yl)phenyl)piperidine-4-carboxamide] | 0.05 to 0.1 µM |
| COCCN1CCC(C(=O)Nc2cccc(-c3nc(N4CCOCC4)c4sc(-c5cccnc5)cc4n3)c2)CC1 [Example 27, 1-(2-methoxyethyl)-N-(3-(4-morpholino-6-(pyridin-3-yl)thieno[3,2-d]pyrimidin-2-yl)phenyl)piperidine-4-carboxamide] | 0.05 to 0.1 µM |
| O=CN1CCC(C(=O)Nc2cccc(-c3nc(N4CCOCC4)c4sc(-c5cccnc5)cc4n3)c2)CC1 [Example 28, 1-formyl-N-(3-(4-morpholino-6-(pyridin-3-yl)thieno[3,2-d]pyrimidin-2-yl)phenyl)piperidine-4-carboxamide] | > 0.1 µM |
| CC(=O)N1CCC(C(=O)Nc2cccc(-c3nc(N4CCOCC4)c4sc(-c5cccnc5)cc4n3)c2)CC1 [Example 29, 1-acetyl-N-(3-(4-morpholino-6-(pyridin-3-yl)thieno[3,2-d]pyrimidin-2-yl)phenyl)piperidine-4-carboxamide] | > 0.1 µM |
| COC(=O)N1CCC(C(=O)Nc2cccc(-c3nc(N4CCOCC4)c4sc(-c5cccnc5)cc4n3)c2)CC1 [Example 30, methyl 4-((3-(4-morpholino-6-(pyridin-3-yl)thieno[3,2-d]pyrimidin-2-yl)phenyl)carbamoyl)piperidine-1-carboxylate] | > 0.1 µM |
| CCOC(=O)N1CCC(C(=O)Nc2cccc(-c3nc(N4CCOCC4)c4sc(-c5cccnc5)cc4n3)c2)CC1 [Example 31, ethyl 4-((3-(4-morpholino-6-(pyridin-3-yl)thieno[3,2-d]pyrimidin-2-yl)phenyl)carbamoyl)piperidine-1-carboxylate] | ≤ 0.05 µM |
| O=C(Nc1cccc(-c2nc(N3CCOCC3)c3sc(-c4cccnc4)cc3n2)c1)[C@H]1CC[C@@H](O)CC1 [Example 32, (1s,4s)-4-hydroxy-N-(3-(4-morpholino-6-(pyridin-3-yl)thieno[3,2-d]pyrimidin-2-yl)phenyl)cyclohexane-1-carboxamide] | ≤ 0.05 µM |
| O=C(Nc1cccc(-c2nc(N3CCOCC3)c3sc(-c4cnco4)cc3n2)c1)c1cocn1 [Example 33, N-(3-(4-morpholino-6-(oxazol-5-yl)thieno[3,2-d]pyrimidin-2-yl)phenyl)oxazole-4-carboxamide] | ≤ 0.05 µM |
